Data as given in patent US20220167618A1, “PESTICIDALLY ACTIVE AZOLE-AMIDE COMPOUNDS” (SYNGENTA CROP PROTECTION AG, priority 2019, published 2022).

Columns and labels:
Assay type in all cases: in vivo
[1] = test system: Diabrotica balteata (Corn Root Worm); assay: Example B1: Diabrotica balteata (corn root worm), sprayed maize sprouts; settings: 96 h, application rate 200 ppm, L2 larvae, 4 days after infestation, read-out: control in at least one of the two categories (mortality or growth inhibition)
Procedure: Example B1: Diabrotica balteata (Corn Root Worm)
Maize sprouts placed onto an agar layer in 24-well microtiter plates were treated with aqueous test solutions prepared from 10′000 ppm DMSO stock solutions by spraying. After drying, the plates were infested with L2 larvae (6 to 10 per well). The samples were assessed for mortality and growth inhibition in comparison to untreated samples 4 days after infestation.

[2] = test system: Chilo suppressalis (Striped Rice Stemborer); assay: Example B4: Chilo suppressalis (striped rice stemborer), artificial diet; settings: 144 h, application rate 200 ppm, L2 larvae, 6 days after infestation, read-out: control in at least one of the three categories (mortality, anti-feedant or growth inhibition)
Procedure: Example B4: Chilo suppressalis (Striped Rice Stemborer)
24-well microtiter plates with artificial diet were treated with aqueous test solutions prepared from 10′000 ppm DMSO stock solutions by pipetting. After drying, the plates were infested with L2 larvae (6-8 per well). The samples were assessed for mortality, anti-feeding effect, and growth inhibition in comparison to untreated samples 6 days after infestation. Control of Chilo suppressalis by a test sample is given when at least one of the categories mortality, anti-feedant effect, and growth inhibition is higher than the untreated sample.

[3] = test system: Plutella xylostella (Diamond Back Moth); assay: Example B5: Plutella xylostella (diamond back moth), artificial diet, 24-well; settings: 192 h, application rate 200 ppm, eggs, 8 days after infestation, read-out: control in at least one of the two categories (mortality or growth inhibition)
Procedure: Example B5: Plutella xylostella (Diamond Back Moth)
24-well microtiter plates with artificial diet were treated with aqueous test solutions prepared from 10′000 ppm DMSO stock solutions by pipetting. After drying, Plutella eggs were pipetted through a plastic stencil onto a gel blotting paper and the plate was closed with it. The samples were assessed for mortality and growth inhibition in comparison to untreated samples 8 days after infestation.

[4] = test system: Myzus persicae (Green Peach Aphid); assay: Example B8: Myzus persicae (green peach aphid), intrinsic activity; settings: 120 h, test rate 12 ppm, 5 days after infestation
Source text: Example B8: Myzus persicae (Green Peach Aphid): Intrinsic Activity
Test compounds prepared from 10′000 ppm DMSO stock solutions were applied by pipette into 24-well microtiter plates and mixed with sucrose solution. The plates were closed with a stretched Parafilm. A plastic stencil with 24 holes was placed onto the plate and infested pea seedlings were placed directly on the Parafilm. The infested plate was closed with a gel blotting paper and another plastic stencil and then turned upside down. The samples were assessed for mortality 5 days after infestation.

[5] = test system: Spodoptera littoralis (Egyptian Cotton Leaf Worm); assay: Example B9: Spodoptera littoralis (Egyptian cotton leaf worm), sprayed cotton leaf discs; settings: foliar, 72 h, application rate 200 ppm, L1 larvae, 3 days after infestation, read-out: control in at least one of the three categories (mortality, anto-feedant or growth inhibition)
[6] = test system: Myzus persicae (Green Peach Aphid); assay: Example B12: Myzus persicae (green peach aphid), 96-well sucrose solution; settings: 120 h, application rate 50 ppm, 5 days after infestation
Source text: Example B12: Myzus persicae (Green Peach Aphid)
Test compounds prepared from 10′000 ppm DMSO stock solutions were applied by a liquid handling robot into 96-well microtiter plates and mixed with a sucrose solution. Parafilm was stretched over the 96-well microtiter plate and a plastic stencil with 96 holes was placed onto the plate. Aphids were sieved into the wells directly onto the Parafilm. The infested plates were closed with a gel blotting card and a second plastic stencil and then turned upside down. The samples were assessed for mortality 5 days after infestation.

[7] = test system: Plutella xylostella (Diamondback Moth); assay: Example B13: Plutella xylostella (diamondback moth), artificial diet, 96-well; settings: 216 h, application rate 500 ppm, eggs/L1 larvae, 9 days after infestation
Procedure: Example B13: Plutella xylostella (Diamondback Moth)
96-well microtiter plates containing artificial diet were treated with aqueous test solutions, prepared from 10′000 ppm DMSO stock solutions, by a liquid handling robot. After drying, eggs (˜30 per well) were infested onto a netted lid which was suspended above the diet. The eggs hatch and L1 larvae move down to the diet. The samples were assessed for mortality 9 days after infestation.

[8] = test system: Spodoptera littoralis (Egyptian Cotton Leaf Worm); assay: Example B10: Spodoptera littoralis (Egyptian cotton leaf worm), uptake via lettuce roots from agar; settings: 144 h, test rate 12.5 ppm, eggs, 6 days after infestation, read-out: control in at least one of the three categories (mortality, anti-feedant, or growth inhibition)
Source text: Example B10: Spodoptera Littoralis (Egyptian Cotton Leaf Worm)
Test compounds were applied by pipette from 10′000 ppm DMSO stock solutions into 24-well plates and mixed with agar. Lettuce seeds were placed onto the agar and the multi well plate was closed by another plate which contained also agar. After 7 days the compound was absorbed by the roots and the lettuce grew into the lid plate. The lettuce leaves were then cut off into the lid plate. Spodoptera eggs were pipetted through a plastic stencil onto a humid gel blotting paper and the lid plate was closed with it. The samples were assessed for mortality, anti-feedant effect and growth inhibition in comparison to untreated samples 6 days after infestation.

[9] = test system: Euschistus heros (Neotropical Brown Stink Bug); assay: Example B2: Euschistus heros (neotropical brown stink bug), sprayed soybean leaves; settings: 120 h, application rate 200 ppm, N2 nymphs, 5 days after infestation, read-out: control in at least one of the two categories (mortality or growth inhibition)
Procedure: Example B2: Euschistus heros (Neotropical Brown Stink Bug)
Soybean leaves on agar in 24-well microtiter plates were sprayed with aqueous test solutions prepared from 10′000 ppm DMSO stock solutions. After drying the leaves were infested with N2 nymphs. The samples were assessed for mortality and growth inhibition in comparison to untreated samples 5 days after infestation.

CC(NC(=O)c1cc(C(F)(F)F)nc(C2(C#N)CC2)c1)c1nc(Br)nn1-c1ncc(OCC(F)F)cn1 (stereo not shown) [Compound P4, N-[1-[5-bromo-2-[5-(2,2-difluoroethoxy)pyrimidin-2-yl]-1,2,4-triazol-3-yl]ethyl]-2-(1-cyanocyclopropyl)-6-(trifluoromethyl)pyridine-4-carboxamide]
≥ 80%: percent control (mortality or growth inhibition) at 200 ppm [1] | percent control (mortality, anti-feedant or growth inhibition) at 200 ppm [2] | percent control (mortality or growth inhibition) at 200 ppm [3] | mortality at 12 ppm [4] | percent control (mortality, anti-feedant or growth inhibition) at 200 ppm [5]

CC(NC(=O)c1cc(C2CC2(F)F)cc(C(F)(F)F)c1)c1nc(Br)nn1-c1ccc(OC(F)F)cn1 (stereo not shown) [Compound P7, N-[1-[5-bromo-2-[5-(difluoromethoxy)-2-pyridyl]-1,2,4-triazol-3-yl]ethyl]-3-(2,2-difluorocyclopropyl)-5-(trifluoromethyl)benzamide]
≥ 80%: percent control (mortality or growth inhibition) at 200 ppm [1] | percent control (mortality, anti-feedant or growth inhibition) at 200 ppm [2] | percent control (mortality or growth inhibition) at 200 ppm [3] | percent control (mortality, anti-feedant or growth inhibition) at 200 ppm [5] | mortality at 50 ppm [6] | mortality at 500 ppm [7]

CC(NC(=O)c1cc(C2CC2)cc(C(F)(F)F)c1)c1nc(Br)nn1-c1ncc(OC(F)F)cn1 (stereo not shown) [Compound P26, N-[1-[5-bromo-2-[5-(difluoromethoxy)pyrimidin-2-yl]-1,2,4-triazol-3-yl]ethyl]-3-cyclopropyl-5-(trifluoromethyl)benzamide]
≥ 80%: percent control (mortality or growth inhibition) at 200 ppm [1] | percent control (mortality, anti-feedant or growth inhibition) at 200 ppm [2] | percent control (mortality or growth inhibition) at 200 ppm [3] | percent control (mortality, anti-feedant or growth inhibition) at 200 ppm [5] | mortality at 50 ppm [6] | mortality at 500 ppm [7]

CC(NC(=O)c1cc(C2CC2)nc(C(F)(F)F)c1)c1nc(Br)nn1-c1ncc(OCC(F)F)cn1 (stereo not shown) [Compound P14, N-[1-[5-bromo-2-[5-(2,2-difluoroethoxy)pyrimidin-2-yl]-1,2,4-triazol-3-yl]ethyl]-2-cyclopropyl-6-(trifluoromethyl)pyridine-4-carboxamide]
≥ 80%: percent control (mortality or growth inhibition) at 200 ppm [1] | percent control (mortality, anti-feedant or growth inhibition) at 200 ppm [2] | percent control (mortality or growth inhibition) at 200 ppm [3] | percent control (mortality, anti-feedant or growth inhibition) at 200 ppm [5] | mortality at 50 ppm [6] | mortality at 500 ppm [7]

CC(NC(=O)c1cc(C(F)(F)F)cc(C(C)(C)C#N)c1)c1nc(Br)nn1-c1ncc(OC(F)F)cn1 (stereo not shown) [Compound P35, N-[1-[5-bromo-2-[5-(difluoromethoxy)pyrimidin-2-yl]-1,2,4-triazol-3-yl]ethyl]-3-(1-cyano-1-methyl-ethyl)-5-(trifluoromethyl)benzamide]
≥ 80%: percent control (mortality or growth inhibition) at 200 ppm [1] | percent control (mortality, anti-feedant or growth inhibition) at 200 ppm [2] | percent control (mortality or growth inhibition) at 200 ppm [3] | mortality at 12 ppm [4] | percent control (mortality, anti-feedant or growth inhibition) at 200 ppm [5] | percent control (mortality, anti-feedant or growth inhibition) at 12.5 ppm [8] | mortality at 500 ppm [7]

CC(NC(=O)c1cc(C(F)(F)F)cc(C(C)(C)C#N)c1)c1nc(Br)nn1-c1ccc(OC(F)F)cn1 (stereo not shown) [Compound P37, N-[1-[5-bromo-2-[5-(difluoromethoxy)-2-pyridyl]-1,2,4-triazol-3-yl]ethyl]-3-(1-cyano-1-methyl-ethyl)-5-(trifluoromethyl)benzamide]
≥ 80%: percent control (mortality or growth inhibition) at 200 ppm [1] | percent control (mortality or growth inhibition) at 200 ppm [9] | percent control (mortality, anti-feedant or growth inhibition) at 200 ppm [2] | percent control (mortality or growth inhibition) at 200 ppm [3] | percent control (mortality, anti-feedant or growth inhibition) at 200 ppm [5]

CC(NC(=O)c1cc(C(F)(F)F)cc(C(C)(C)C#N)c1)c1nc(Br)nn1-c1ccc(C#N)cn1 (stereo not shown) [Compound P36, N-[1-[5-bromo-2-(5-cyano-2-pyridyl)-1,2,4-triazol-3-yl]ethyl]-3-(1-cyano-1-methyl-ethyl)-5-(trifluoromethyl)benzamide]
≥ 80%: percent control (mortality or growth inhibition) at 200 ppm [1] | percent control (mortality or growth inhibition) at 200 ppm [9] | percent control (mortality, anti-feedant or growth inhibition) at 200 ppm [2] | percent control (mortality or growth inhibition) at 200 ppm [3] | percent control (mortality, anti-feedant or growth inhibition) at 200 ppm [5] | mortality at 500 ppm [7]

CC(NC(=O)c1cc(C2CC2(F)F)cc(C(F)(F)F)c1)c1nc(Br)nn1-c1ncc(OCC(F)(F)F)cn1 (stereo not shown) [Compound P11, N-[1-[5-bromo-2-[5-(2,2,2-trifluoroethoxy)pyrimidin-2-yl]-1,2,4-triazol-3-yl]ethyl]-3-(2,2-difluorocyclopropyl)-5-(trifluoromethyl)benzamide]
≥ 80%: percent control (mortality or growth inhibition) at 200 ppm [1] | percent control (mortality or growth inhibition) at 200 ppm [9] | percent control (mortality, anti-feedant or growth inhibition) at 200 ppm [2] | percent control (mortality or growth inhibition) at 200 ppm [3] | percent control (mortality, anti-feedant or growth inhibition) at 200 ppm [5] | mortality at 500 ppm [7]

CC(NC(=O)c1cc(C(F)(F)F)cc(C2(C#N)CC2)c1)c1nc(Br)nn1-c1ccc(C#N)cn1 (stereo not shown) [Compound P1, N-[1-[5-bromo-2-(5-cyano-2-pyridyl)-1,2,4-triazol-3-yl]ethyl]-3-(1-cyanocyclopropyl)-5-(trifluoromethyl)benzamide]
≥ 80%: percent control (mortality or growth inhibition) at 200 ppm [1] | percent control (mortality, anti-feedant or growth inhibition) at 200 ppm [2] | percent control (mortality or growth inhibition) at 200 ppm [3] | percent control (mortality, anti-feedant or growth inhibition) at 200 ppm [5] | percent control (mortality, anti-feedant or growth inhibition) at 12.5 ppm [8]
